Laboratory results published in patent publication US8029764B2, “Methods for detection of colorectal cancer” (The Johns Hopkins University, priority 2001, dated 2011).

System: colorectal tissue transcripts
Test: SAGE of normal, adenoma and cancer colorectal tissue (transcript tag counts)
Design: species or system human
Excerpt: In an effort to identify potential molecular markers of early colorectal tumors, we have here analyzed gene expression in benign and malignant colorectal tumors in an unbiased and comprehensive fashion. We used SAGE to analyze global gene expression in normal, benign and malignant colorectal tissue. SAGE is a gene expression profiling method that associates individual mRNA transcripts with 15-base tags derived from specific positions near their 3′ termini (3). The abundance of each tag provides a quantitative measure of the transcript level present within the mRNA population studied. SAGE is not dependent on pre-existing databases of expressed genes, and therefore provides an unbiased view of gene expression profiles. For the current study, SAGE libraries derived from two samples of normal colonic epithelium, two colorectal adenomas, and two colorectal cancers were analyzed.
SAGE. For the initial SAGE^3 of benign tumors, fresh adenomas were obtained from surgical specimens derived from FAP patients. Adenomas from FAP patients were employed because of the ready availability of small lesions and the certainty of inactivation of the APC pathway which initiates the formation of the majority of sporadic tumors. After histopathological verification of the neoplastic nature of the lesion (>70% neoplastic cells), total RNA was isolated by solubilizing the tissue in RNAgents Lysis Buffer (Promega, Madison, Wis.) followed by ultracentrifugation over a cesium chloride gradient. mRNA selection was performed from the purified total RNA using oligo(dT) cellulose (Life Technologies, Gaithersburg, Md.). […] Tags were extracted from the raw sequence data and, after excluding repeated ditags, linker sequences, and tags from the polyrnorphic Major Histocompatibility loci, the resulting tag libraries were compared and statistical analysis performed using SAGE software, version 4.0. Data from the libraries are publicly available at the Uniform Resource Locator (URL) address for the http file type found on the www host server that has a domain name of ncbi.nlm.nih.gov, and a path to the directory SAGE, and detailed SAGE protocols are available at the Uniform Resource Locator (URL) address for the http file type found on the www host server that has a domain name of sagenet.org, and file name of sage_protocol.htn.

[1] = normal colorectal tissue library 1
[2] = normal colorectal tissue library 2

Sequence | AD1 (SAGE tag count) (SAGE library AD1) | AD2 (SAGE tag count) (SAGE library AD2) | CA1 (SAGE tag count) (SAGE library CA1) | CA2 (SAGE tag count) (SAGE library CA2) | NC1 (SAGE tag count) (SAGE library NC1) | NC2 (SAGE tag count) (SAGE library NC2) | AD1 (SAGE tag count) (adenoma library 1) | AD2 (SAGE tag count) (adenoma library 2) | CA1 (SAGE tag count) (cancer library 1) | CA2 (SAGE tag count) (cancer library 2) | NC1 (SAGE tag count) [1] | NC2 (SAGE tag count) [2]
ATCGTGGCGG (chemistry not fully specified) | 19 | 25 | 20 | 10 | 193 | 92 |  |  |  |  |  | 
GACGCGGCGC (chemistry not fully specified) | 10 | 17 | 12 | 17 | 30 | 47 |  |  |  |  |  | 
ACATTGGGTG (chemistry not fully specified) | 67 | 34 | 96 | 33 | 377 | 334 |  |  |  |  |  | 
GCCCAGGGCC (chemistry not fully specified; the letters are possibly those of the target site) | 2 | 1 | 2 | 1 | 4 | 44 |  |  |  |  |  | 
TACTGTGGAT (chemistry not fully specified) |  |  |  |  |  |  | 0 | 2 | 2 | 1 | 4 | 11
TAAGGCCTTT (chemistry not fully specified; the letters are possibly those of the target site) |  |  |  |  |  |  | 1 | 0 | 0 | 1 | 6 | 9
GGCTCGGGAT (chemistry not fully specified) | 2 | 4 | 3 | 5 | 15 | 11 |  |  |  |  |  | 
ATGTGCGTGG (chemistry not fully specified) | 11 | 3 | 7 | 7 | 38 | 8 |  |  |  |  |  | 
GCCGGGTGGG (chemistry not fully specified) | 18 | 24 | 68 | 67 | 207 | 149 |  |  |  |  |  | 
CCCGCCTCTT (chemistry not fully specified) | 3 | 3 | 16 | 1 | 0 | 40 |  |  |  |  |  | 
CAAGAGTTTC (chemistry not fully specified) | 0 | 0 | 0 | 0 | 14 | 2 |  |  |  |  |  | 
GCCCACGTCA (chemistry not fully specified) | 0 | 0 | 0 | 0 | 7 | 8 |  |  |  |  |  | 
AGGTGACTGG (chemistry not fully specified) | 0 | 0 | 0 | 0 | 10 | 14 |  |  |  |  |  | 
CGAGGGGCCA (chemistry not fully specified) | 18 | 18 | 12 | 32 | 110 | 47 |  |  |  |  |  | 
TTCCACTAAC (chemistry not fully specified) |  |  |  |  |  |  | 7 | 4 | 5 | 5 | 29 | 9
TTTAACGGCC (chemistry not fully specified) |  |  |  |  |  |  | 36 | 35 | 11 | 30 | 93 | 67
